Legend:
primary human T cells = assay: Primary human T cell viability in GSI, trypan blue dye exclusion; type: cell-based; settings: 0.01 μM to 100 μM; 24 hours
Protocol: (B) Primary human T cells were cultured in GSI RO4929097 at concentrations ranging from 0.01 μM to 100 μM and viability was measured by trypan blue dye exclusion after 24 hours. There was no effect of GSI, at any concentration, on T cell viability.

[1] = test system: CD19 CAR-T cells co-cultured with Raji or K562/CD19+ target cells; assay: CD19 CAR-T cell viability and effector function in the presence of GSI; type: cell-based, human
Protocol: (A) CD19 staining of K562 CD19^+ and Raji cells that were cultured with or without GSI for ±12-16 h. Isotype control shown as gray line.
(C) CD19 CAR-T cells were co-cultured with K562/CD19 target cells in media containing various concentrations of RO4929097. RO4929097 inhibits CD19 CAR-T cell effector function at concentrations of 3 μM when co-cultured, as determined by measuring IL-2 (upper panel) and IFNγ (lower panel) production.
(D) IL-2 production by CD19 CAR-T cells cultured with target cells in the presence of increasing concentrations of GSI RO4929097.
(E) IL-2 production by CD19 CAR-T cells cultured with target cells (“K562 CD19”) or control cells (“KS562 BCMA”) in the presence of increasing concentrations of GSI RO4929097. Cells were administered the indicated amounts of the GSI and then washed (empty bars) or not (filled bars).
(F) Data from another experiment showing IL-2 production by CD19 CAR-T cells after overnight co-culture with K562 BCMA^+ or K562 CD19^+ cells following pre-incubation with varying concentrations of GSI. After washing, GSI was either added back in (+/+) or left out of the co-culture (+/−) to assess the reversibility of cytokine production.
(G) Specific lysis, by CD19 CAR-T cells, of the indicated target or control cells in the presence of GSI RO4929097.
(H) Proliferation of CD19 CAR-T cells cultured with CD19-expressing target cells in the presence or absence of GSI or with control cells in the absence of GSI. Cells were stained with CFSE and proliferation was measured by flow cytometry.
(I) Graphic representation of the number of cell divisions of CD19 CAR-T cells in the presence of the indicated concentrations of GSI RO4929097. The width of the horizontal bars represents the proportion of CAR-T cells in culture that divided the indicated number of generations (i.e., 5, 4, 3, 2, 1, or 0 generations) over the course of the experiment.
[…] Cell counts (CD8 staining) during expansion of CD19-specific CAR-T cells with CD19^+ TM LCL cells and exogenous IL-2 in the absence of GSI (circle) or the presence of GSI at 0.5 μM (square) or 5 μM (triangle).
(K) Cell counts of CD19-specific CAR-T cells (CD4:CD8 (1:1) expanded with CD19^+ TM. LCL cells in the absence or presence of GSI as indicated, but without the addition of exogenous IL-2.
(L) IFN-γ concentrations in supernatants of GSI-expanded anti-CD19 CAR CD8^+ T cells following re-stimulation with K562 cells (no antigen), K562 CD19^+ cells, or Raji cells.
(M, N) Production of IFN-γ (M) and IL-2 (N) by the CD4:CD8 anti-CD19 CAR-T cell mixture following re-stimulation with the indicated cell lines in the absence of GSI or the presence of either 0.5 μM or 5 μM GSI.
Without wishing to be bound by theory, a potential caveat of using GSI to augment BCMA on myeloma cells to improve CAR-T cell recognition is that high concentrations of GSI may inhibit T-cell signaling and effector functions. See Eagar et al., Immunity 20(4):407, 2004. To evaluate potential effects of GSI on CAR T cells in a setting where target ligand expression remains stable, CD19 CAR-T cells were co-cultured with Raji or K562/CD19^+ target cells in the presence of GSI (0.01 μM to 100 μM) and measured viability and effector function. Over this concentration range there was no effect on CD19 antigen expression (FIG. 5A) or on CAR-T cell viability after 24 hours (FIG. 5B). […] However, the ability of the CD19 CAR-T cells to specifically kill target cells was not affected by GSI concentration (FIG. 5G). […] To further investigate the dosage effect of GSI on CAR-T cell division, a dose titration of GSI RO4929097 was added to co-cultures of CD19 CAR-T and target cells.

[2] = test system: CD138+ primary myeloma cells; assay: Surface BCMA and other surface molecules on primary patient myeloma cells incubated with GSI, flow cytometry; type: cell-based, human
Protocol: (N) Fold change in BCMA on primary myeloma cells (n=7) cultured with vary amounts of GSI for 4 h. Primary and cell lines were cultured at 0.5×10^6 cells/mL. Fold change in BCMA is defined as Treated (MFIBCMA-MFIiso)/Control (MFIBCMA-MFIiso). Data is representative of 3 independent experiments with T cells derived from different donors. […] (R) CD138+ primary myeloma cells were enriched from patient bone marrow samples, incubated for 3 hours in the presence of various concentrations of GSI RO429097 (0.01 μM to 10 μM) and evaluated for surface BCMA expression by flow cytometry. BCMA mean fluorescence intensity (MFI) on tumor cells is presented as fold increase over that observed on tumor cells incubated without RO429097. There is an observed dose dependent upregulation of BCMA. The effect of GSI on BCMA expression was then tested on primary myeloma samples from patients. CD138^+ myeloma cells were enriched from patient bone marrow samples, incubated for 3 hours in the presence of various concentrations of GSI RO429097 (0.01 μM to 10 μM) and evaluated for surface BCMA expression by flow cytometry (FIGS. 3M and 3R). BCMA mean fluorescence intensity (MFI) on tumor cells is presented as fold increase over tumor cells incubated without RO4929097.

[3] = expanded in 5 μM, 0.5 μM or no GSI

For `CC(C)(C(=O)NCC(F)(F)C(F)(F)F)C(=O)N[C@@H]1C(=O)Nc2ccccc2-c2ccccc21` [RO4929097], the T cell viability (primary human T cells) was “no effect”, the “proliferation of CD19 CAR-T cells in response to target cells” value ([1]; 10 μM GSI vs absence of GSI) was “less effectively” and the “expansion of CD19 CAR-T cells” value ([1]; 8 days in culture with or without exogenous IL-2, GSI 0.5 or 5 μM) was “did not show a decrease in expansion”. The “CD19 antigen expression on target cells” value ([1]; GSI 0.01 μM to 100 μM) was “no effect”, the CAR-T cell viability ([1]; GSI 0.01 μM to 100 μM, 24 hours) was “no effect” and the “T cell function (cytokine production, cell lysis activity, proliferation)” value ([1]; GSI at therapeutic levels) was “does not affect T cell function”. The “IFN-γ production on re-stimulation after expansion in GSI” value [1, 3] was “did not show a significant difference”, the “IL-2 production on re-stimulation after expansion in GSI” value [1, 3] was “not markedly different” and the CAR-T cell division ([1]; non-therapeutic dose (10 μM)) was “detectably inhibit proliferation”. For the same compound, the “specific killing of target cells by CD19 CAR-T cells” value ([1]; range of GSI concentrations) was “not affected”, the CAR-T cell division ([1]; therapeutic doses of GSI (0.01 μM-1 μM)) was “essentially unaffected or only slightly affected” and the “surface BCMA (MFI, fold increase) on primary myeloma cells” value ([2]; 3 hours, 0.01 μM to 10 μM) was “dose-dependent upregulation”. For the same compound, the “levels of other cell surface molecules (CS1, CD86, PD-L1, CD80, CD38)” value ([2]; primary myeloma cells, various GSI concentrations) was “no effect”.

Source: patent publication US11845803B2, “Combination therapies for treatment of BCMA-related cancers and autoimmune disorders” (Fred Hutchinson Cancer Center, priority 2017, dated 2023)
